This note sets out measurements from patent publication US5610297A, “Peptides ketoamides” (Georgia Tech Research Corp., priority 1995, dated 1997).

In series [1] the test system is Calpain-mediated breakdown of spectrin in platelets. Briefly: Platelet membrane permeability assay. The series is classed as cell-based, rat. Set-up: unit not given here. The settings on record: numeric value, unit not given. The method, then:
Platelet membrane permeability assay. Calpain-mediated breakdown of spectrin was measured by quantitative densitometry of the calpain-specific 150/155 kDa spectrin fragment doublet [see Siman et al., Proc. Natl. Acad. Sci. USA 81, 3572-3576 (1984)]. Platelets were isolated by a modification of the method of Ferrell and Martin [J. Biol. Chem. 264, 20723-20729 (1989)]. Blood (15-20 ml) was drawn from male Sprague-Dawley rats into 1/10th volume of 100 mM EDTA-citrate, and centrifuged 10 minutes at 2000 rpm in a clinical centrifuge at room temperature. […] Platelets were washed once in 15 ml buffer 1, then resuspended to 10^7 cells/ml in buffer 2 (136 mM NaCl, 2.7 mM KCl, 0.42 mM NaH2 PO4, 12 mM NaHCO3, 2mM MgCl, 1 mg/ml BSA (Sigma), 5.6 mM glucose, 20 mM HEPES (Sigma) pH 7.4) and allowed to "rest" for a minimum of 10 minutes at room temperature before use.
Inhibitors were added from stock solutions made fresh in DMSO. 100 μl platelets, suspended to 10^7 cells/ml in buffer 2, were incubated with 1 μl of an inhibitor solution for 5 minutes at room temperature prior to the addition of 2 mM Ca^2+ and 1 uM A23 187. After 10 minutes total exposure to inhibitor (5 minutes exposure to ionophore) at room temperature, platelets were reisolated at 14,000 rpm for 10 sec in a Beckman microfuge, dissolved in SDS-PAGE sample buffer, and heated to 90° C. for 3 minutes.
Samples were subjected to SDS-PAGE in 4-12% gradient mini gels (Novex) and transferred to nitrocellulose (Schleicher and Schuell 0.45 um) by electroblotting. Filters were blocked for 10 minutes in 0.25% gelatin, 1% BSA, 0.25% triton X100, 0.9% NaCl, 10 mM Tris-Cl pH 7.5, incubated overnight in the same solution containing antibody to rat spectrin, washed 3×10 minutes with 10 mM Tris-Cl pH 7.5, 0.5% triton X100, incubated 4 hours in wash buffer plus alkaline phosphatase conjugated goat anti-rabbit antibody (Biorad), and washed as above. Blots were developed using the Biorad AP conjugate substrate kit. Quantitative densitometry was used to obtain values for the intact spectrin bands and the 150/155 kDa breakdown product doublet.

The next series has as its target cathepsin B. Put plainly: Inhibition of cathepsin B. The class given is biochemical. The settings on record: read-out: KI Cath B. The protocol:
(§1) Materials and Methods. HEPES, heparin, and A23187 were obtained from Calbiochem. Suc-Leu-Tyr-AMC and chromogenic substrates were obtained from Sigma. Calpain I was purified from human erythrocytes according to the method of Kitahara (Kitahara et al., J. Biochem. 95, 1759-1766) omitting the Blue-Sepharose step. Calpain II from rabbit muscle and cathepsin B were purchased from Sigma. Papain was purchased from Calbiochem.
(§2) Assay of Inhibitory Potency. Peptide α-ketoamides were assayed as reversible enzyme inhibitors. Various concentrations of inhibitors in Me2 SO were added to the assay mixture which contained buffer and substrate. The reaction was started by the addition of the enzyme and the hydrolysis rates were followed spectrophotometrically or fluorimetrically.
(§3) Calpain I from human erythrocytes and calpain II from rabbit were assayed using Suc-Leu-Tyr-AMC [Sasaki et al., J. Biol. Chem. 259, 12489-12494 (1984); incorporated herein by reference], and the AMC (7-amino-4-methylcoumarin) release was followed fluorimetrically (excitation at 380 nm, and emmision at 460 nm). Calpains were assayed in 25 mM Tris pH=8.0, 10 mM CaCl2. Fluorescence was followed using a Gilson FL-1A fluorometer or a Perkin-Elmer 203 Fluorescence spectrometer. Cathepsin B was assayed in 20 mM sodium acetate pH=5.2, 0.5 mM dithiothreitol using Bz-Phe-Val-Arg-p-nitroanilide as substrate. Alternately, cathepsin B was assayed with Z-Arg-Arg-AFC [Barrett and Kirschke, Methods Enzymol. 80, 535-561 (1981); incorporated herein by reference], and the AFC (7-amino-4-trifluoromethylcoumarin) release was followed fluorimetrically (excitation at 400 nm and emmision at 505 nm). Papain was assayed in 100 mM KPO4, 1 mM EDTA, 2.5 mM cysteine pH=6.0 using Bz-Arg-AMC or Bz-Arg-NA [Kanaoka et al., Chem. Plmrm. Bull. 25, 3126-3128 (1977); incorporated herein by reference] as a substrate. The AMC (7-amino-4-methylcoumarin) release was followed fluorimetrically (excitation at 380 nm, and emmision at 460 nm). Enzymatic hydrolysis rates were measured at various substrate and inhibitor concentrations, and KI values were determined by either Lineweaver-Burk plots or Dixon plots.
(§4) A 0.1M Hepes, 0.5M NaCl, pH 7.5 buffer was utilized for human leukocyte elastase (HLE), porcine pancreatic elastase (PPE), chymotrypsin and cathepsin G. A 0.1 Hepes, 0.01M CaCl2, pH 7.5 buffer was utilized for trypsin, plasmin, and coagulation enzymes. A 50 mM Tris-HCl, 2 mM EDTA, 5 mM cysteine, pH 7.5 was used as a buffer for papain. A 88 mM KH2 PO4, 12 mM Na2 HPO4, 1.33 mM EDTA, 2.7 mM cysteine, pH 6.0 solution was used as a buffer for cathepsin B. A 20 mM Hepes, 10 mM CaCl2, 10 mM mercatoethanol, pH 7.2 buffer was utilized for calpain I and calpain II.

The nature of another series: Half-life in plasma. The class given is in vitro ADME. The settings on record: unit inferred, unit assumed.
The target in series [2] is Calpain II from rabbit muscle. Put plainly: Inhibition of calpain II (Suc-Leu-Tyr-AMC hydrolysis). The class given is biochemical. The protocol:
as §1, §2, §3, §4

Another series is described as follows: Half-life in liver. The series is classed as in vitro ADME. The note with it: unit inferred, unit assumed.
The next series has as its target chymotrypsin (Bos taurus, UniProt P00766, DEL14-15/DEL147-148). Briefly: Inhibition of chymotrypsin (Suc-Val-Pro-Phe-NA hydrolysis). The class given is biochemical, bovine. The protocol:
as §2, §4
(§5) HLE and PPE were assayed with MeO-Suc-Ala-Ala-Pro-Val-NA and Suc-Ala-Ala-Ala-NA, respectively [Nakajima et al., J. Biol. Chem. 254, 4027-4032 (1979); incorporated herein by reference]. Human leukocyte cathepsin G and chymotrypsin Aα were assayed with Suc-Val-Pro-Phe-NA [Tanaka et al., Biochemistry 24, 2040-2047 (1985); incorporated herein by reference]. The hydrolysis of peptide 4-nitroanilides was measured at 410 nm [ε410 =8800 M^-1 cm^-1; Erlanger et al., Arch. Biochem. Biophys. 95, pp 271-278 (1961); incorporated herein by reference]. Trypsin, thrombin, human plasma kallikrein, porcine pancreatic kallikrein, human factor XIa, and human plasmin were assayed with Z-Arg-SBzl or Z-Gly-Arg-SBu-i [McRae et al., Biochemistry 20, 7196-7206 (1981); incorporated herein by reference]. All peptide thioester hydrolysis rates were measured with assay mixtures containing 4,4'-dithiodipyridine [ε324 =19800 M^-1 cm^-1; Grasetti & Murray, Arch. Biochem. Biophys. 119, 41-49 (1967); incorporated herein by reference].

The target in series [3] is porcine pancreatic elastase (PPE) (Sus scrofa, UniProt P00772). Put plainly: Inhibition of PP elastase (Suc-Ala-Ala-Ala-NA hydrolysis). The class given is biochemical. The method, then:
as §2, §4, §5

The structures appear in SMILES notation.

Sequence of porcine pancreatic elastase (PPE) (P00772 27-266): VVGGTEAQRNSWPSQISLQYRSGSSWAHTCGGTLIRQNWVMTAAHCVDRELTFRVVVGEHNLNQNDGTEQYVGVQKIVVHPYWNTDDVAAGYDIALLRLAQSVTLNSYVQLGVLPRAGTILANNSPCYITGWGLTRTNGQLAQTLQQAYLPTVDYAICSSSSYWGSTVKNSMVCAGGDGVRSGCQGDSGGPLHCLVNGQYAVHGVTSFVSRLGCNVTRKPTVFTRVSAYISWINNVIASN

As for `CCCCOC(=O)C(=O)[C@H](CC)NC(=O)[C@H](CC(C)C)NC(=O)OCc1ccccc1` [Z--Leu--Abu--COOn--Bu], in series [1], the “platelet (Activity in the Platelet Assay)” value (“platelet” for short) stood at 28.
Take `CCC(NC(=O)C(CC(C)C)NC(=O)OCc1ccccc1)C(=O)C(=O)NCc1ccccc1` (stereo not drawn) [Z--Leu--Abu--CONH--Bzl, Z-Leu-Abu-CONH-Bzl]: the inhibition constant Ki – broadly, the dissociation constant of the complex between target and ligand, obtained from inhibition or displacement – at cathepsin B is 2000 nM; in series [2] it was 350 nM; on chymotrypsin it was greater than 300000 nM. The molecule also gave a t 1/2 plasma in “Half-life in plasma” greater than 60 min. Further, in series [1], the “platelet” value is recorded as 1.5. Besides, the t 1/2 liver in “Half-life in liver” was greater than 60 min.
Molecule `CCOC(=O)C(=O)[C@H](CC)NC(=O)[C@H](CC(C)C)NC(=O)[C@H](CC(C)C)NC(=O)c1ccc2ccccc2c1` [2-NapCO--Leu--Leu--Abu--COOEt] displayed a t 1/2 plasma in the series “Half-life in plasma” of 25 min.
Regarding `CCC(NC(=O)C(CC(C)C)NC(=O)OCc1ccccc1)C(=O)C(=O)O` (stereo not shown) [Z--Leu--Abu--COOH], the t 1/2 plasma in the series “Half-life in plasma” was greater than 60 min. The “platelet” value in series [1] worked out at 8. Also, the t 1/2 liver in the series “Half-life in liver” is greater than 60 min.
`CC[C@H](NC(=O)[C@H](CC(C)C)NC(=O)OCc1ccccc1)C(=O)C(=O)NCCCN1CCOCC1` [Z--Leu--Abu--CONH--(CH2)3 --Mpl, Z-Leu-Abu-CONH-(CH2)3 --N(CH2 CH2)2 O] yielded a Ki in series [2] of 41 nM.
For the molecule `CCCCCCCCNC(=O)C(=O)[C@H](CC)NC(=O)[C@H](CC(C)C)NC(=O)OCc1ccccc1` [Z--Leu--Abu--CONH--(CH2)7 CH3, Z-Leu-Abu-CONH--(CH2)7 CH3], the affinity in series [2], expressed as Ki, was 19 nM.
In the series “Half-life in plasma”, `CC(C)CC(NC(=O)OCc1ccccc1)C(=O)NC(Cc1ccccc1)C(=O)C(=O)O` (stereo not shown) [Z--Leu--Phe--COOH] registered a t 1/2 plasma greater than 60 min. In addition, the “platelet” value in series [1] is on record as 6.5. In addition, in “Half-life in liver”, the t 1/2 liver was greater than 60 min.
Molecule `CCOC(=O)C(=O)C(CC)NC(=O)C(CC(C)C)NC(=O)C(CC(C)C)NS(=O)(=O)c1ccc2ccccc2c1` (stereo not shown) [2-NapSO2--Leu--Leu--Abu--COOEt] gave a t 1/2 plasma in the series “Half-life in plasma” greater than 60 min. For the same molecule, the “platelet” value in series [1] was 100.
Turning to `CCOC(=O)C(=O)[C@H](CC)NC(=O)[C@H](CC(C)C)NC(=O)OCc1ccccc1` [Z--Leu--Abu--COOEt], in the series “Half-life in plasma”, the t 1/2 plasma came out at 2.8 min. Besides, the “platelet” value in series [1] amounted to 42.
On to `CCOC(=O)C(=O)C(Cc1ccccc1)NC(=O)C(CC(C)C)NC(=O)OCc1ccccc1` (stereo not drawn) [Z--Leu--Phe--COOEt, Z-Leu-Phe-COOEt], for which the t 1/2 plasma in “Half-life in plasma” stood at 7.8 min. Besides, in series [1], the “platelet” value was 42.
As for `CC(C)C[C@H](NC(=O)OCc1ccccc1)C(=O)N[C@@H](Cc1ccccc1)C(=O)C(=O)NCCc1ccccc1` [Z--Leu--Phe--CONH(CH2)2 Ph, Z-Leu-Phe-CONH-(CH2)2 Ph], in “Half-life in plasma”, the t 1/2 plasma was greater than 60 min. The “platelet” value in series [1] is given as 3.0. Further, in series [2], affinity was put at a Ki of 24 nM.
As to `CC(C)C[C@H](NC(=O)OCc1ccccc1)C(=O)N[C@@H](Cc1ccccc1)C(=O)C(=O)NCc1ccccc1` [Z--Leu--Phe--CONH--Bzl, Z-Leu-Phe-CONH-Bzl], the Ki in series [2] worked out at 46 nM.
With `CCC(NC(=O)C(CC(C)C)NC(=O)OCc1ccccc1)C(=O)C(=O)NCCO` (stereo not drawn) [Z--Leu--Abu--CONH--(CH2)2 OH, Z-Leu-Abu-CONH-(CH2)2 OH], the affinity in series [2], expressed as Ki, was 78 nM.
On the same count and under the same terms, with `CC[C@H](NC(=O)[C@H](CC(C)C)NC(=O)OCc1ccccc1)C(=O)C(=O)NCCc1ccccc1` [Z--Leu--Abu--CONH--(CH2)2 --Ph, Z-Leu-Abu-CONH-(CH2)2 Ph] the figure was 22 nM.
Regarding `CCOC(=O)C(=O)C(CC)NC(=O)C(CC(C)C)NC(=O)C(CC(C)C)NC(=O)OCc1ccccc1` (stereo not shown) [Z--Leu--Leu--Abu--COOEt], the “platelet” value in series [1] is listed as 40.
As to `CCOC(=O)C(=O)[C@H](CC)NC(=O)[C@H](CC(C)C)NC(=O)[C@H](CC(C)C)NS(=O)(=O)c1ccc(C)cc1` [Tos--Leu--Leu--Abu--COOEt], the t 1/2 plasma in “Half-life in plasma” turned out to be 30 min. In series [1], the “platelet” value is recorded as 30.
In turn, `CCCC(NC(=O)C(CC(C)C)NC(=O)OCc1ccccc1)C(=O)C(=O)OCC` (stereo not shown) [Z--Leu--Nva--COOEt] displayed a t 1/2 plasma in “Half-life in plasma” of 2.8 min. In addition, in series [1], the “platelet” value amounted to 40.
Regarding `CCC(NC(=O)C(CC(C)C)NC(=O)OCc1ccccc1)C(=O)C(=O)NCC(C)C` (stereo not drawn) [Z--Leu--Abu--CONH--iBu, Z-Leu-Abu-CONH-iBu], the Ki on cathepsin B is 4000 nM; in series [2], 140 nM; in series [3], 40000 nM; on chymotrypsin it was greater than 300000 nM. In the series “Half-life in plasma”, the t 1/2 plasma is greater than 60 min. Also, in series [1], the “platelet” value amounted to 28.
Turning to `CCCCC(NC(=O)C(CC(C)C)NC(=O)OCc1ccccc1)C(=O)C(=O)OCC` (stereo not shown) [Z--Leu--Nle--COOEt], the t 1/2 plasma in the series “Half-life in plasma” stood at 3.7 min. Further, the “platelet” value in series [1] was found to be 20.
Regarding `CC(C)CNC(=O)C(=O)[C@H](Cc1ccccc1)NC(=O)[C@H](CC(C)C)NC(=O)OCc1ccccc1` [Z--Leu--Phe--CONH--iBu, Z-Leu-Phe-CONH-iBu], the Ki came to 4000 nM at cathepsin B, 65 nM in series [2] and 24000 nM on chymotrypsin. In addition, in the series “Half-life in plasma”, the t 1/2 plasma was greater than 60 min. In addition, in series [1], the “platelet” value worked out at 22.
